The results in this text go back to paper PMC6934700, “Structure-Guided Design of a Fluorescent Probe for the Visualization of FtsZ in Clinically Important Gram-Positive and Gram-Negative Bacterial Pathogens” (Scientific Reports, 2019).

One test deals with S. aureus NRS705 (MRSA). Description: MIC assay by broth microdilution. The format is cell-based, Staphylococcus aureus. The settings on record: for 4× MIC: S. aureus NRS705, concentration equal to four times the MIC; for MIC: Staphylococcus aureus, MRSA NRS705, TH broth, ≥90% growth inhibition after 18-24 hours. On the procedure:
MIC assays of 1, 3, and BOFP were conducted by standard broth microdilution in TH media. Briefly, log-phase S. aureus NRS705 (MRSA) cells were added to 96-well microtiter plates (at 5 × 10^5 CFU/mL) containing 2-fold serial dilutions of each test compound in 0.1 mL of TH broth, with each compound concentration being present in duplicate. The MIC is defined as the lowest compound concentration at which growth is ≥90% inhibited after 18-24 hours of aerobic growth.
On the technique in general: Broth dilution looks for growth in wells or tubes with falling amounts of substance.

The test system of another test is S. aureus NRS705. In words: Impact of FtsZ inhibitor treatment on cell morphology and FtsZ localization (DIC/fluorescence microscopy, BOFP labeling). The format is cell-based, Staphylococcus aureus. The settings on record: treated at 4x MIC for 3 hours. Here is the method: (§1) All differential interference contrast (DIC) and fluorescence microscopy experiments were conducted using an Olympus BX50 microscope equipped with an X-cite Exacte 200 W mercury lamp, a 100× Olympus UPLSAPO oil immersion objective (1.40 aperture), as well as both Chroma ET-EGFP (FITC/Cy2) and ET mCherry, Texas Red filters. Images were captured using a QImaging Retiga R3 charge-coupled device (CCD) camera and the Ocular-Version 2.0 software package (QImaging).
(§2) To visualize the impact of treatment with the FtsZ inhibitor 1 using BOFP, S. aureus NRS705 (MRSA), E. coli N43, and K. pneumoniae ATCC 10031 were grown to log-phase in CAMH broth and diluted to an OD600 of 0.1. […] Following this treatment, 1–5 mL of each culture was centrifuged at 15,000 × g for 1 minute and washed twice with 1 mL of PBS (for S. aureus) or TBS (for E. coli and K. pneumoniae). The resulting S. aureus cell pellets were further processed and labeled with BOFP as described above for the Gram-positive bacterial strains and the resulting E. coli and K. pneumoniae cell pellets were further processed and labeled with BOFP as described above for the Gram-negative bacterial strains. The impact of treating S. aureus NRS705 cells with the FtsZ inhibitors PC190723 and TXA707 at 4× MIC (2 µg/mL for PC190723 and 4 µg/mL for TXA707) was also examined using BOFP as described above.

In test [1] the test system is E. coli N43. The description is as above. In kind it is cell-based, Escherichia coli. The settings on record: treated at 4x MIC for 3 hours. Here is the method: as §1, §2
In test [2] the test system is K. pneumoniae ATCC 10031. The description is as above. In kind it is cell-based, Klebsiella pneumoniae. The settings on record: treated at 4x MIC for 3 hours. Here is the method: as §1, §2
The subject of test [3] is E. coli N43. Description: MIC (stated as 4× MIC used for treatment). In kind it is cell-based, Escherichia coli. The settings on record: concentration equal to four times the MIC.
Test [4] deals with K. pneumoniae ATCC 10031. In words: MIC (stated as 4× MIC used for treatment). The format is cell-based, Klebsiella pneumoniae. The settings on record: concentration equal to four times the MIC.
The subject of a further test is MRSA LAC FtsZ-mCherry. In words: MIC (stated as 4× MIC used for treatment). The settings on record: concentration equal to four times the MIC. In kind it is cell-based, Staphylococcus aureus.
In the next test the target is T1, S. aureus (SaFtsZ) (Staphylococcus aureus, UniProt P0A031).
T1 construct: 6xHis (C); made in house; host or cells: E. coli BLR (DE3), pET-22b(+)
T1 sequence (P0A031 1-390): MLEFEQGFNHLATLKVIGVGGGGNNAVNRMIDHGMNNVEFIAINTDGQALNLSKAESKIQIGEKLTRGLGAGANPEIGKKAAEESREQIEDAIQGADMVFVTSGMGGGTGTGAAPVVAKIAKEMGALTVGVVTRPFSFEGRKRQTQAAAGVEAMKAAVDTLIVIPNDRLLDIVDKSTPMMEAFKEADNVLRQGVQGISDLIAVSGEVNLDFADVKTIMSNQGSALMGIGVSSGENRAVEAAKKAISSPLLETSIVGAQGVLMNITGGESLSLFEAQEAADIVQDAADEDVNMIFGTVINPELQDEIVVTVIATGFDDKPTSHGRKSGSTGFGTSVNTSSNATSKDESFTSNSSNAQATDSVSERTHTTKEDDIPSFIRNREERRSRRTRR
Description: biochemical. In kind it is binding. The settings on record: 0.1 µM compound, 10 µM SaFtsZ, 37 °C. On the procedure:
(§3) Fluorescence anisotropy experiments were performed using an AVIV model ATF105 spectrofluorometer at 15, 25, or 37 °C. In these experiments, bandwidths were set to 4 nm in both the excitation and emission directions, with the excitation and emission wavelengths being set at 488 nm and 510 nm, respectively. BOFP (0.1 µM) was titrated with increasing concentrations (ranging from 0 to 12 µM) of FtsZ in 120 µL of buffer containing 50 mM Tris-HCl (pH 7.6) and 50 mM KCl. After each protein addition, the samples were equilibrated for 3 minutes, whereupon the fluorescence anisotropy was measured.
(§4) In this equation, r0 is the anisotropy of the protein-free compound, r∞ is the anisotropy of the compound in the presence of an infinite concentration of FtsZ, [C]tot is the total concentration of the compound, and [P]tot is the total concentration of protein with each addition. These analyses yielded the equilibrium dissociation constant (Kd) for each binding reaction.
(§5) The binding free energy (ΔG) at temperature T was derived from the corresponding Kd value determined at T using the following relationship:2 ΔG=−RTln(1/Kd)
(§6) The binding enthalpy (ΔH) and entropy (ΔS) were derived from linear fits of the ln(1/Kd) vs. 1/T plots shown in Figs. 3f and 5e using the following relationship:3 ln(1/Kd)=−ΔH/R(1/T)+ΔS/R
The impact of guanosine nucleotide and magnesium on the binding of BOFP to SaFtsZ was assessed at 37 °C in the same buffer described above. In these studies, the anisotropy of 0.1 µM BOFP alone or in the presence of 10 µM SaFtsZ was measured, with the latter also being measured in the presence of 0.1 mM GMPCPP (a non-hydrolyzable GTP analog), 10 mM MgCl2, or both.
(§7) In comparative control experiments, the anisotropy of 0.1 µM BODIPY FL-COOH or BOFP alone or in the presence of SaFtsZ (10 µM), SpyFtsZ (10 µM), KpFtsZ (2 µM), or PaFtsZ (2 µM) was measured at 37 °C in the same buffer described above.

The target in another test is S. pyogenes (SpyFtsZ) (Streptococcus pyogenes, UniProt Q99YV7). In words: Fluorescence anisotropy binding of BOFP to SpyFtsZ. The settings on record: 0.1 µM compound, 10 µM SpyFtsZ, 37 °C. Here is the method: as §3, §4, §5, §6, §7
In general terms: Polarisation of emitted light reports the rotation of a fluorescent probe.

Another test has as its target K. pneumoniae (KpFtsZ) (Klebsiella pneumoniae, UniProt A0A0H3GRR0). In words: Fluorescence anisotropy binding of BOFP to KpFtsZ. The settings on record: 0.1 µM compound, 2 µM KpFtsZ, 37 °C. Here is the method: as §3, §4, §5, §6, §7
The next test concerns the target T2, P. aeruginosa (PaFtsZ) (Pseudomonas aeruginosa, UniProt P47204).
T2 construct: 6xHis (C); made in house; host or cells: E. coli BLR (DE3), pET-22b(+)
T2 sequence (P47204 1-394): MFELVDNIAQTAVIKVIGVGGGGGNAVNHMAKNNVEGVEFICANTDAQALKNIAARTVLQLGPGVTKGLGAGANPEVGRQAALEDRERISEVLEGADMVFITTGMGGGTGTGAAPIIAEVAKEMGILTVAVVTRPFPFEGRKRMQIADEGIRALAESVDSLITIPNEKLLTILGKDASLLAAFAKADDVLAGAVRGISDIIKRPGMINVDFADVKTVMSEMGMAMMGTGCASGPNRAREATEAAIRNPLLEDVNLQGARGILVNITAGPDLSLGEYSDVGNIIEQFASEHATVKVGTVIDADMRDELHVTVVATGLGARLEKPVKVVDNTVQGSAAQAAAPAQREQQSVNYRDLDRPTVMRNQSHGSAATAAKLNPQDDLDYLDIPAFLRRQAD
In words: Fluorescence anisotropy binding of BOFP to PaFtsZ. The settings on record: 0.1 µM compound, 2 µM PaFtsZ, 37 °C. On the procedure: as §3, §4, §5, §6, §7

Test [5] deals with T3, FtsZ in S. aureus NRS705 cells (Staphylococcus aureus, UniProt P0A031).
T3 construct: endogenous in cells; host or cells: S. aureus NRS705 (USA100 MRSA)
In kind it is cell-based. The settings on record: 1 µg/mL for 5 minutes. Here is the method: as §1
For visualizing FtsZ in Gram-positive bacteria using BOFP, the bacterial cells were grown to log-phase in media suitable for each individual pathogen. Specifically, S. aureus NRS705 (MRSA) was grown in tryptic soy broth (TSB), E. faecalis ATCC 29212 and E. faecium ATCC 19434 were grown in lactobacilli MRS broth, S. agalactiae ATCC 12386 and S. pneumoniae ATCC 49619 were grown in TH broth, and S. pyogenes ATCC 19615 was grown in CAMH broth supplemented with 3% (v/v) LHB. For each Gram-positive bacterial strain, a total of 1 mL of cell culture was centrifuged at 15,000 × g for 1 minute and washed 2–3 times with 1 mL of PBS. After the final wash, the pelleted cells were resuspended in 500 µL of PBS containing 1 µg/mL of BOFP and incubated in the dark for 5 minutes at room temperature. The cells were then centrifuged at 15,000 × g for 1 minute, washed twice with 1 mL of PBS, and subsequently resuspended in 200 µL of PBS. […]

Test [6] deals with FtsZ in K. pneumoniae ATCC 13883 cells. Description: FtsZ visualization by fluorescence microscopy in live cells. In kind it is cell-based, Klebsiella pneumoniae. The settings on record: 1 µg/mL for 5 minutes, co-treated with 3.5 mg/mL pentamidine isethionate. On the procedure: as §1
For visualizing FtsZ in Gram-negative bacteria using BOFP, E. coli ATCC 25922, K. pneumoniae ATCC 13883, P. aeruginosa ATCC 27853, and A. baumannii ATCC 19606 were grown to log-phase in CAMH broth. For each Gram-negative bacterial strain, a total of 1 mL of cell culture was centrifuged at 15,000 × g for 1 minute and washed twice with 1 mL of Tris-buffered saline (TBS) composed of 50 mM Tris-HCl (pH 7.6) and 150 mM NaCl. After the final wash, the pelleted cells were resuspended in 500 µL of TBS containing 1 µg/mL of BOFP and pentamidine isethionate (at 0.875 mg/mL for E. coli and 3.5 mg/mL for the other three strains). The resuspended cells were then incubated in the dark for 5 minutes at room temperature, centrifuged at 15,000 × g for 1 minute, washed twice with 1 mL of TBS, and subsequently resuspended in 200 µL of TBS. This final cell suspension was then prepared for microscopy as described for the Gram-positive bacterial strains. Comparative control experiments with 1 µg/mL BODIPY FL-COOH were conducted in K. pneumoniae ATCC 13883 cells as described above for BOFP.

Each structure is given as a SMILES string. ≈ marks a conversion by molar mass, not a printed value.

In general, MIC refers to the least concentration at which growth counts as inhibited. Lower therefore signals greater potency.

Chain of S. pyogenes (SpyFtsZ) (Q99YV7 entry or part of it): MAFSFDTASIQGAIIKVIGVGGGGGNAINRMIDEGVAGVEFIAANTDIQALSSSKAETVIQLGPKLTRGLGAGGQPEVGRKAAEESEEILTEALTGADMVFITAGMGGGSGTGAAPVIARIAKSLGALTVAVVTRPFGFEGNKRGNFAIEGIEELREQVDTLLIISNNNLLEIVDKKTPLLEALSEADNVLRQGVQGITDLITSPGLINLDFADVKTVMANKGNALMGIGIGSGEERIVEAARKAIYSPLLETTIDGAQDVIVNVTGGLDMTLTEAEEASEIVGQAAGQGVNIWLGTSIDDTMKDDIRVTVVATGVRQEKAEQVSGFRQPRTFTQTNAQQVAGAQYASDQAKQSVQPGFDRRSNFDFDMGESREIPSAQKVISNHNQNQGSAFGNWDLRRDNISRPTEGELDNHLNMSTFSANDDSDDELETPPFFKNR
Chain of K. pneumoniae (KpFtsZ) (A0A0H3GRR0 entry or part of it): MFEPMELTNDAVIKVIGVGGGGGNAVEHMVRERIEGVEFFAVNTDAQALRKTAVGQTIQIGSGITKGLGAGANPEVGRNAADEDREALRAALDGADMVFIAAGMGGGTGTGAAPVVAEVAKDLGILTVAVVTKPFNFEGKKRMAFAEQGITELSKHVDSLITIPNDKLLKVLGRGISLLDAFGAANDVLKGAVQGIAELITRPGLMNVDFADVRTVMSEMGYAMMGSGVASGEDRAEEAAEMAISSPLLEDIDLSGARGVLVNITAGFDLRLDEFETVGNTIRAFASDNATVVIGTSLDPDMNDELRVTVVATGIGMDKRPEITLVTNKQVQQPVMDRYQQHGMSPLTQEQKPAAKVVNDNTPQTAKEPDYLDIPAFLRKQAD

With `NC(=O)c1c(F)ccc(OCc2nc3cc(Cl)cnc3s2)c1F` [PC190723], in the test with S. aureus NRS705 (MRSA), the “4× MIC” value is recorded as 2 µg/mL.
`NC(=O)c1c(F)ccc(OCc2nc3cc(C(F)(F)F)cnc3s2)c1F` [TXA707]: the “4× MIC” value in the test with S. aureus NRS705 (MRSA) is on record as 4 µg/mL.
As to `NC(=O)c1c(F)ccc(OCc2nc(-c3ccc(C(F)(F)F)cc3)c(Br)o2)c1F` [compound 1], the “4× MIC” value was 1 µg/mL in the test on S. aureus NRS705 (MRSA), 4 µg/mL with E. coli N43 [3], 4 µg/mL with K. pneumoniae ATCC 10031 [4] and 0.25 µg/mL in the test with MRSA LAC FtsZ-mCherry. The compound also yielded an MIC against S. aureus NRS705 (MRSA) of 0.25 µg/mL (≈ 0.524 µM). Moreover, the “Change in cell morphology” value with S. aureus NRS705 was “cell enlargement”; in the test on E. coli N43 [1], “filamentation”; with K. pneumoniae ATCC 10031 [2], “filamentation”. For the same compound, the “FtsZ localization visualized with BOFP” value is “clear mislocalization of FtsZ and an absence of Z-rings” in the test on S. aureus NRS705 (then 1 µg/mL BOFP for 5 minutes); “clear mislocalization of FtsZ and an absence of Z-rings” with E. coli N43 [1] (then 1 µg/mL BOFP with 0.875 mg/mL pentamidine isethionate for 5 minutes); “clear mislocalization of FtsZ and an absence of Z-rings” in the test with K. pneumoniae ATCC 10031 [2] (then 1 µg/mL BOFP with 3.5 mg/mL pentamidine isethionate for 5 minutes).
For the compound `CC1=CC(C)=[N+]2C1=Cc1ccc(CCC(=O)O)n1[B-]2(F)F` [BODIPY FL-COOH, 3-(5,5-difluoro-7,9-dimethyl-5H-5λ^4,6λ^4-dipyrrolo[1,2-c:2′,1′-f][1,3,2]diazaborinin-3-yl)propanoic acid, reference compound], the “Binding interaction (fluorescence anisotropy change on adding FtsZ)” value on S. aureus (SaFtsZ) was “No such anisotropy change was observed”; at S. pyogenes (SpyFtsZ) it was “no such binding interactions were observable”; on K. pneumoniae (KpFtsZ) it was “no binding interactions with BODIPY FL-COOH were detectable”; at P. aeruginosa (PaFtsZ) it was “no binding interactions with BODIPY FL-COOH were detectable”. For the same compound, the “Fluorescence staining / FtsZ labeling in live cells” value was “no fluorescence staining of the S. aureus cells was detectable” in [5] and “no such FtsZ staining was detectable” in test [6].
On to `NC(=O)c1c(F)ccc(OC(CO)c2nc(-c3ccc(C(F)(F)F)cc3)c(Br)o2)c1F` (centres unmarked) [compound 3], for which the MIC in the test on S. aureus NRS705 (MRSA) came to 0.5 µg/mL (≈ 0.986 µM).
